Measurements published in US6447749B1, “Perfluoro-alkyl containing dye molecules and galencial formulations” (Schering Aktiengesellschaft, priority 1999, dated 2002).

Assays:
[1] = Photophysical characterization: absorption maxima and extinction coefficients (Lambda 2-spectrometer); format: physicochemical
Method: (§1) The determination of the absorption maxima and extinction coefficients was carried out with a Lambda 2-spectrometer (Perkin-Elmer Company). The fluorescence properties were determined on a SPEX-fluorolog (Instruments S. A. Company, photomultiplier Hamamatsu PM928, excitation 350W xenon lamp). the determination of the fluorescence quantum yield was carried out relative to indocyanine green (O=13% in DMSO) by excitation at 585 nm (dyes with p=2) or 685 nm (dyes with p=3), in each case of solutions of concentration 2 μM in dye, and correction with the spectral sensitivity of lamp and detector.

lymph nodes [2] = test: Visualization of lymph nodes in situ after interstitial administration; format: in vivo, rat; conditions: five hours after interstitial administration
Method: 0.1 ml of a formulation that contained 1 mmol/L of dye 8 and 19 mmol/L of 6-[1-O-α-D-mannopyranosyl)-hexanoic acid N-(3-oxa-1H,1H,2H,2H,4H,4H,5H,5H-perfluorotridecyl)-amide was administered interstitially in a skin fold between the toes of the right rear extremity. Five hours after administration, the test animal was sacrificed and opened abdominally. Based on the fluorescence image, the lymph nodes can be localized in situ and the lymph tracts can be visualized. […] The fluorescence of the substances was stimulated by irradiation of the abdominally-opened animal with near-infrared light of wavelength 740 nm, which was produced with an Nd:YAG laser. The fluorescence radiation was detected at a wavelength of >800 nm by an intensified CCD-camera, and the fluorescence images were stored digitally.

lymph nodes [3] = test: Fluorescence coloring of lymph nodes after intravenous administration; format: in vivo; conditions: rat; 5 hours after intravenous administration; 0.2 ml of 0.5 mmol/L dye 8 and 9.5 mmol/L Gd complex; excitation 740 nm, detection >800 nm
Method: From the substance, 0.2 ml of a solution that contained 0.5 mmol/L of dye 8 and 9.5 mmol/L of 10-[1-methyl-2-oxo-3-aza-5-oxo-5-{4-perfluorooctylsulfonyl-piperazin-1-yl}-pentyl]-1,4,7-tris(carboxymethyl)-1,4,7,10-tetraazacyclododecane, was administered intravenously in a caudal vein of the rat. Five hours after administration, the lymph nodes were prepared and a fluorescence image was recorded. The fluorescence of the substances was stimulated by irradiation of the lymph nodes with near-infrared light of wavelength 740 nm, which was produced with an Nd:YAG laser. The fluorescence radiation was detected at a wavelength of >800 nm by an intensified CCD-camera, and the fluorescence images were stored digitally.

popliteal lymph node = test: Localization in lymph nodes by fluorescence microscopy on frozen sections; format: in vivo; conditions: guinea pig popliteal lymph node; four hours after interstitial administration; formulation 5 mol % of dye 8/95 mol % Gd complex; untreated animals no fluorescence
Method: The localization of the formulations according to the invention in lymph nodes was studied by fluorescence microscopy on frozen sections of the lymph nodes. In this respect, the lymph nodes were prepared after the lymphography and deep-frozen at −80° C. Sections with a 5 μm thickness were produced on a freezing microtome. The evaluation was carried out on a Zeiss Axiovert 135-fluorescence microscope, which was equipped with a Cy 7-(excitation filter HQ710/70 nm, emission filter 810/90 nm, beam splitter 750 nm LP). From all the preparations, white light and fluorescence images were recorded with a CCD camera (Princeton Instruments RTE/CCD-576) and stored digitally.
Images of a cryosection from a popliteal lymph node of an untreated guinea pig in bright field (3c) and in near-infrared-fluorescence (3d) are shown for comparison.

regional lymph nodes = test: Interstitial near-infrared lymphography of guinea pigs; format: in vivo; conditions: guinea pig, formulation 5 mol % of dye 8/95 mol % Gd complex, interstitial/intracutaneous, 0.3 μmol/kg of 8
Method: The imaging properties of the formulations according to the invention were studied in vivo in guinea pigs. […] The fluorescence of the substances was stimulated by irradiation of the animals with near-infrared light of wavelength 740 nm, which was produced with an Nd:YAG laser. The fluorescence radiation was detected at a wavelength of >800 nm by an intensified CCD-camera, and the fluorescence images were stored digitally.
0.1 ml of a stock solution with 1 mmol/L of 8 was injected into a skin fold between the toes of the right rear extremity, and the final concentration was 0.3 μmol/kg of 8.

lymph nodes [4] = test: Fluorescence coloring of lymph nodes after interstitial administration (monosaccharide formulation); format: in vivo; conditions: 5 mol % of dye 8 and 95 mol % mannopyranosyl perfluoroalkyl amide
Method: From the substance, 0.1 ml of a solution that contained 1 mmol/L of dye 8 and 19 mmol/L of 6-[1-O-α-D-mannopyranosyl]-hexanoic acid N-(3-oxa-1H,1H,2H,2H,4H,4H,5H,5H-perfluorotridecyl)-amide was administered interstitially in a skin fold between the toes of the right rear extremity of the animal. Five hours after administration, the lymph nodes of the right and left sides of the body were prepared, and a fluorescence image was recorded. The fluorescence of the substances was stimulated by irradiation of the lymph nodes with near-infrared light of wavelength 740 nm, which was produced with an Nd:YAG laser. The fluorescence radiation was detected at a wavelength of >800 nm by an intensified CCD-camera, and the fluorescence images were stored digitally.

[5] = Photophysical characterization: fluorescence properties and fluorescence quantum yield (SPEX-fluorolog, relative to indocyanine green); format: physicochemical
Method: as §1

[6] = dyes 7-14 table, formulation with Gd-complex perfluoroalkyl derivative (WO 97/26017 Ex. 33), 5 mol % of dye
[7] = formulation with Gd-complex perfluoroalkyl derivative (WO 97/26017 Ex. 33), 1 mol % of dye
[8] = formulation with Gd-complex perfluoroalkyl derivative (WO 97/26017 Ex. 33), 2 mol % of dye
[9] = formulation with Gd-complex perfluoroalkyl derivative (WO 97/26017 Ex. 33), 5 mol % of dye
[10] = formulation with Gd-complex perfluoroalkyl derivative (WO 97/26017 Ex. 33), 10 mol % of dye
[11] = three-component formulation: 5 mol % of dye, 0 mol % of Gd complex, 95 mol % of monosaccharide
[12] = three-component formulation: 5 mol % of dye, 10 mol % of Gd complex, 85 mol % of monosaccharide
[13] = three-component formulation: 5 mol % of dye, 30 mol % of Gd complex, 65 mol % of monosaccharide
[14] = three-component formulation: 5 mol % of dye, 50 mol % of Gd complex, 45 mol % of monosaccharide
[15] = three-component formulation: 5 mol % of dye, 70 mol % of Gd complex, 25 mol % of monosaccharide
[16] = three-component formulation: 5 mol % of dye, 90 mol % of Gd complex, 5 mol % of monosaccharide
[17] = five hours after interstitial administration (right rear extremity)

CC1(C)C(=CC=CC=CC=CC2=[N+](CCCCS(=O)(=O)[O-])c3ccc(C(=O)N(CCOCCC(F)(F)C(F)(F)C(F)(F)C(F)(F)C(F)(F)C(F)(F)C(F)(F)C(F)(F)F)CC(O)CO)cc3C2(C)C)N(CCCCS(=O)(=O)[O-])c2ccccc21.[Na+] (centres unmarked) [Dye 10, 5-{N-[2-(3,3,4,4,5,5,6,6,7,7,8,8,9,9,10,10,10-heptadecafluorodecyloxy)ethyl]-N-(2,3-dihydroxypropyl)aminocarbonyl}-2-{7-[1,3-dihydro-3,3-dimethyl-1-(4-sulfobutyl)-2H-indol-2-ylidene]-1,3,5-heptatrienyl}-3,3-dimethyl-1-(4-sulfobutyl)-3H-indolium, internal salt, sodium salt]
Absorption max. [1, 6]: 753 nm
Extinction coefficient [1, 6]: 120,800 L mol^−1 cm^−1
Absorption max. [1, 7]: 755 nm
Extinction coefficient [1, 7]: 150,500 L mol^−1 cm^−1
Absorption max. [1, 8]: 755 nm
Extinction coefficient [1, 8]: 148,800 L mol^−1 cm^−1
Absorption max. [1, 9]: 753 nm
Extinction coefficient [1, 9]: 120,800 L mol^−1 cm^−1
Absorption max. [1, 10]: 751 nm
Extinction coefficient [1, 10]: 108,500 L mol^−1 cm^−1
Absorption maximum [1, 11]: 760 nm
Extinction coefficient [1, 11]: 90500 L/mol/cm
Absorption maximum [1, 12]: 760 nm
Extinction coefficient [1, 12]: 102700 L/mol/cm
Absorption maximum [1, 13]: 760 nm
Extinction coefficient [1, 13]: 107900 L/mol/cm
Absorption maximum [1, 14]: 756 nm
Extinction coefficient [1, 14]: 108700 L/mol/cm
Absorption maximum [1, 15]: 756 nm
Extinction coefficient [1, 15]: 111100 L/mol/cm
Absorption maximum [1, 16]: 755 nm
Extinction coefficient [1, 16]: 112500 L/mol/cm
visualization of lymph nodes and lymph tract in situ by fluorescence (lymph nodes [2]; abdominally-opened rat, 0.1 ml of 1 mmol/L dye 8 and 19 mmol/L mannopyranosyl perfluoroalkyl amide): visualized based on a fluorescence signal
visual coloring of lymph nodes in situ (lymph nodes [2]; rat, 5 mol % of dye 8 and 95 mol % mannopyranosyl perfluoroalkyl amide): green coloring
fluorescence signal of axillary, inguinal and popliteal lymph nodes (lymph nodes [3]): All lymph nodes showed a clear fluorescence signal
near-infrared fluorescence of lymph node frozen sections (popliteal lymph node): pronounced fluorescence
fluorescence signal at the injection site (regional lymph nodes; abdominal view, 120 minutes after administration): strong fluorescence signal
fluorescence signal at the injection site (regional lymph nodes; right lateral view, 117 minutes after administration): strong fluorescence signal
fluorescence signal of lymph nodes, left side of the body (lymph nodes [4]; [17]): no lymph nodes of the left side of the body
fluorescence signal of lymph nodes, right (administered) side of the body (lymph nodes [4]; [17]): Most lymph nodes of the right (administered) side of the body showed a fluorescence signal
coloring of the fluorescence-labeled lymph nodes (lymph nodes [4]; five hours after interstitial administration): greenish-colored
Fluorescence max. [5, 6]: 788 nm
Fluorescence quantum yield ([5]; dyes 7-14 table, formulation with Gd-complex perfluoroalkyl derivative (WO 97/26017 Ex. 33), 5 mol % of dye, 2 μM in dye): 0.14
Fluorescence max. [5, 7]: 784 nm
Fluorescence quantum yield ([5]; formulation with Gd-complex perfluoroalkyl derivative (WO 97/26017 Ex. 33), 1 mol % of dye, 2 μM in dye): 0.23
Fluorescence max. [5, 8]: 785 nm
Fluorescence quantum yield ([5]; formulation with Gd-complex perfluoroalkyl derivative (WO 97/26017 Ex. 33), 2 mol % of dye, 2 μM in dye): 0.23
Fluorescence max. [5, 9]: 788 nm
Fluorescence quantum yield ([5]; formulation with Gd-complex perfluoroalkyl derivative (WO 97/26017 Ex. 33), 5 mol % of dye, 2 μM in dye): 0.14
Fluorescence max. [5, 10]: 790 nm
Fluorescence quantum yield ([5]; formulation with Gd-complex perfluoroalkyl derivative (WO 97/26017 Ex. 33), 10 mol % of dye, 2 μM in dye): 0.03
Fluorescence maximum [5, 11]: 800 nm
Fluorescence quantum yield [5, 11]: 0.16
Fluorescence maximum [5, 12]: 800 nm
Fluorescence quantum yield [5, 12]: 0.11
Fluorescence maximum [5, 13]: 800 nm
Fluorescence quantum yield [5, 13]: 0.14
Fluorescence maximum [5, 14]: 798 nm
Fluorescence quantum yield [5, 14]: 0.26
Fluorescence maximum [5, 15]: 794 nm
Fluorescence quantum yield [5, 15]: 0.18
Fluorescence maximum [5, 16]: 793 nm
Fluorescence quantum yield [5, 16]: 0.13
